For data set [1] the following is noted: control rabbits.
Data set [2] can be described thus: Chelation with Al3+ ion in vitro (precipitation with AlCl3). Format: physicochemical. The settings on record: drug 50 μM, pH 6.5, 30 min, 24 °C. On the procedure: AlCl3 was also dissolved in the same buffer at a concentration of 50 μM, 100 μM, 200 μM, 1 mM, or 2 mM, and each drug solution and AlCl3 solution were mixed at an equal volume. The mixture solution was shaken, stood for 30 min at 24 °C and centrifuged. The supernatant was filtrated through a syringe filter with 0.22 μm of pore size (Millipore, Tokyo, Japan).

The conditions of data set [3]: cited from earlier work; for Rate of adsorption onto solid Al(OH)3: quinolones 50 µM.
The conditions of data set [4]: cited from earlier work.
The conditions of data set [5]: mixed-breed dogs, dose of 5 mg/kg; cited from earlier work.
The conditions of data set [6]: sheep, dose of 2 mg/kg; cited from earlier work.
The conditions of data set [7]: rats; cited from earlier work.
The conditions of data set [8]: cited from earlier work. The source holds these as a separate data set.
For data set [9] the following is noted: cited from earlier work. The source holds these as a separate data set.
A further data set concerns P. aeruginosa ATCC27853. Kind of data set: MIC, agar plate dilution method. Format: cell-based, Pseudomonas (P.) aeruginosa.
Data set [10] in a line: Enzymatic stability in rat 2% liver homogenates. Format: in vitro ADME. Particulars: 37 °C. The protocol: (§1) Briefly, to examine the chemical stability of CFX-EHE, pH 6.5 and pH 7.4 phosphate buffer solutions (PBS) were used. Enzymatic stability of CFX-EHE (the initial concentration was 0.1 mM) was determined at 1, 5, and 15 min after the start of incubation at 37 °C using the following specimen: rat 10% plasma obtained from male Sprague Dawley (SD) rats, rat 2% small intestinal mucosal homogenates, and rat 2% liver homogenates in the same manner as described previously. […].

The test system of a further data set is S. aureus ATCC29213. Kind of data set: MIC, agar plate dilution method. Format: cell-based, Staphylococcus (S.) aureus. On the procedure: The bacterial numbers of S. aureus, E. coli, and P. aeruginosa were adjusted to McFarland 0.5 ([…]) with the sterilized isotonic NaCl solution. These bacterial solutions were inoculated in Mueller–Hinton broth containing CFX or CFX-EHE. Facultative anaerobic and aerobic bacteria were cultured under the aerobic condition at 37 °C for 20 h.

A short description of data set [11]: Enzymatic stability in rat 2% small intestinal mucosal homogenates. Particulars: rat 2% mucosal homogenate, 37 °C. Format: in vitro ADME. The protocol:
as §1

Data set [12] is described as follows: Solubility in pH 2 buffer and 0.1 M Tris-HCl buffer (pH 6.5). Format: physicochemical. The settings on record: thermodynamic from solid, 25 °C. The protocol:
The mixture was centrifuged at 3000 rpm for 10 min, and the supernatant was filtered through a syringe filter with 0.22 μm of pore size (Millipore, Tokyo, Japan), and the concentrations of the compound in the filtrate were measured by HPLC.

Data set [13] in a line: Chemical stability in phosphate buffer solutions. Format: physicochemical. Particulars: 37 °C. The protocol: as §1
In another data set the test system is E. coli ATCC25922. Briefly: MIC, agar plate dilution method. Format: cell-based, Escherichia (E.) coli. The protocol: The bacterial numbers of S. aureus, E. coli, and P. aeruginosa were adjusted to McFarland 0.5 ([…]) with the sterilized isotonic NaCl solution. […] Facultative anaerobic and aerobic bacteria were cultured under the aerobic condition at 37 °C for 20 h.

The nature of data set [14]: Enzymatic stability in rat 10% plasma. Format: in vitro ADME. Particulars: 37 °C. The protocol:
as §1

Data set [15] in a line: Partition coefficient, chloroform/0.1 M Tris-HCl buffer (pH 6.5). Format: physicochemical. On the procedure: Briefly, chloroform and 0.1 M Tris-HCl buffer (pH 6.5) were mutually saturated before experiments. […] Four milliliters of each drug solution were added to 4 mL of chloroform, and the mixture was vigorously shaken for 30 min at 25 °C. After centrifugation at 3000 rpm for 10 min, the concentration of the compound in both phases was determined by HPLC.

For data set [16] the following is noted: 2% liver homogenates, 1 min incubation; cited from earlier work.
The conditions of data set [17]: 10% plasma, 1 min incubation; cited from earlier work.
The conditions of data set [18]: cited from earlier work. The source holds these as a separate data set.
For data set [19] the following is noted: 2% mucosal homogenate, 1 min incubation; cited from earlier work.

In brackets after ≈: the same amount, converted by molar mass. Where two headings read alike, the source gives them in different places.

With `O=C(O)c1cn(C2CC2)c2cc(N3CCNCC3)c(F)cc2c1=O` [CFX, ciprofloxacin], the β in data set [1] ([…] iv infusion, LFX 20, CFX 30, TC 10 mg/kg) amounted to 0.34 ± 0.04 h⁻¹. Further, the “Precipitation (%)” value in data set [2] (AlCl3 25 μM) was determined as 20.4 ± 17.6%; in [2] (AlCl3 50 μM), 22.9 ± 16.7%; in [2] (AlCl3 100 μM), 39.2 ± 17.7%; in data set [2] (AlCl3 500 μM) it was 55.5 ± 18.0%; in data set [2] (AlCl3 1 mM), 73.4 ± 2.0%.
Regarding `CC1COc2c(N3CCN(C)CC3)c(F)cc3c(=O)c(C(=O)O)cn1c23` (centres unmarked) [OFX, ofloxacin], in data set [3], the “Elution rate of adsorbed quinolones with water” value (shortened to “Elution rate”) is 20.9% and the “Rate of adsorption onto solid Al(OH)3” value was 47.2%.
For the compound `C[C@H]1COc2c(N3CCN(C)CC3)c(F)cc3c(=O)c(C(=O)O)cn1c23` [LFX, levofloxacin], the Precipitation percentage in data set [4] (50 μM of AlCl3, same in vitro conditions) is 12.4%. Moreover, the “Total plasma clearance (CLtotal), Doseiv/AUC0–∞” value in [1] (iv infusion) worked out at 13.7 mL/min/kg. Further, the Absolute oral bioavailability was 71.93 ± 9.75% in data set [5] and 114 ± 27.7% in data set [6]. In addition, the “Dose absorbed as the intact form from the intestinal tract into the portal system” value in data set [7] is recorded as “approximately 90%”. The “Oral bioavailabilities in humans” value in data set [8] (LFX 200–750 mg, CFX 200–1000 mg, TC 250 mg, ref references listed in the discussion section) is 70–100% (200–750 mg). Moreover, the “Fecal recovery, % of an intravenous dose” value in data set [8] (human, in vivo, iv) is “approximately 15%”. Further, the Oral bioavailability in data set [8] (human, in vivo, po, 200 mg) was 69 ± 7%; in data set [8] (human, in vivo, po, 250 mg) it was 79 ± 47%; in data set [8] (human, in vivo, po, 500 mg) it was 82 ± 13%; in [8] (human, in vivo, po) it was “approximately 70%”; in data set [8] (humans, review article), “approximately 100%”. The PC in [9] was 5.6. Also, the “Elution rate” value in data set [3] is listed as 17.9%. In [3], the “Rate of adsorption onto solid Al(OH)3” value is recorded as 48.1%.
The MIC is the least concentration at which growth counts as inhibited. As usually defined, the solubility is how much of the substance goes into solution per volume. With `CCOC(=O)OC(C)OC(=O)c1cn(C2CC2)c2cc(N3CCNCC3)c(F)cc2c1=O` (centres unmarked) [CFX-EHE], the “MIC of CFX-EHE relative to CFX” value with P. aeruginosa ATCC27853 (P. aeruginosa), in the data set with S. aureus ATCC29213 (S. aureus) and with E. coli ATCC25922 (E. coli) was “more than 10 times” throughout. For the same compound, the MIC against P. aeruginosa ATCC27853 (Pseudomonas aeruginosa, P. aeruginosa ATCC27853, 37 °C, 20 h) came to 8 µg/mL (≈ 17.9 µM); against S. aureus ATCC29213 (Staphylococcus aureus, S. aureus ATCC29213, 37 °C, 20 h), 4 µg/mL (≈ 8.94 µM); in the data set on E. coli ATCC25922 (Escherichia coli, E. coli ATCC25922, 37 °C, 20 h), 0.5 µg/mL (≈ 1.12 µM). The “Hydrolysis (%)” value turned out to be 38.4 ± 15.8% in data set [10] (1 min); 69.5 ± 9.5% in [10] (5 min); 94.8 ± 3.4% in data set [10] (15 min); 20.4 ± 2.7% in [11] (1 min); 59.0 ± 9.2% in [11] (5 min); 85.9 ± 11.5% in data set [11] (15 min). In addition, the “Hydrolysis (%)” value in data set [13] (0.1 M PBS (pH 6.5), 1 min) was 0%; in data set [13] (0.1 M PBS (pH 6.5), 5 min), 0%; in data set [13] (0.1 M PBS (pH 6.5), 15 min), 0%; in [13] (0.1 M PBS (pH 7.4), 1 min), 0%; in [13] (0.1 M PBS (pH 7.4), 5 min), 0%; in [13] (0.1 M PBS (pH 7.4), 15 min) it was 0%. Moreover, the figures for the “Hydrolysis (%)” value in data set [14] (1 min), in [14] (5 min) and in [14] (15 min) were 9.5 ± 9.0%, 27.2 ± 1.0% and 71.1 ± 17.4%, respectively. Besides, the “Precipitation (%)” value in data set [2] (AlCl3 25 μM), in data set [2] (AlCl3 50 μM), in data set [2] (AlCl3 100 μM) and in data set [2] (AlCl3 500 μM) was 0% each time. The solubility at 30 min worked out at 3080 µg/mL (≈ 6880 µM) in data set [12] (aqueous buffer, 0.1 M Tris-HCl buffer (pH 6.5), read-out: Solubility pH 6.5) and 4280 µg/mL (≈ 9570 µM) in data set [12] (pH 2 buffer adjusted with hydrochloric acid, pH 2, aqueous buffer, read-out: Solubility pH 2.0). For the same compound, in [15] (chloroform/0.1 M Tris-HCl buffer (pH 6.5), 25 °C), the “log PC” value was 0.79. In addition, the “PC (partition coefficient)” value in data set [15] (chloroform/0.1 M Tris-HCl buffer (pH 6.5), 25 °C, mean of 3) is listed as 6.12. The “Apparent PC of CFX-EHE relative to CFX” value in data set [15] (chloroform/pH 6.5 buffer) was determined as 13 fold.
For the compound `CCn1cc(C(=O)O)c(=O)c2cc(F)c(N3CCNCC3)nc21` [ENX, enoxacin], in data set [3], the “Elution rate” value is 18.3% and the “Rate of adsorption onto solid Al(OH)3” value is 61.0%.
For orientation: Solubility means how much of the substance goes into solution per volume. `CCOC(=O)OC(C)OC(=O)c1cn2c3c(c(N4CCN(C)CC4)c(F)cc3c1=O)OC[C@@H]2C` (some centres unmarked) [LFX-EHE, levofloxacin-ethoxycarbonyl 1-ethyl hemiacetal ester]: in data set [4] (1 mM of AlCl3 (drug: AlCl3 = 1:20)), the “Precipitation in the presence of AlCl3” value is reported as “not precipitated”. Moreover, the Average hydrolysis % is 17.7% in data set [16], 8.2% in data set [17] and 17.4% in [19]. Also, the PC in data set [9] is given as 75.2. The “PC (lipophilicity) of LFX-EHE relative to LFX” value in [9] is on record as 13 fold. For the same compound, the “Solubility at pH 2.0” value in data set [18] is 16.54 mg/mL.

The values above are taken from PMC10301896 (Pharmaceutics, 2023).
